Experimental findings from ChEMBL document CHEMBL4725232, “Synthesis and biological activity of new bisbenzofuran-imidazolium salts” (Bioorg Med Chem Lett, 2020) are described below.

Holding throughout (type): functional, cell-based
Experiment [1] deals with MCF7. The experiment is described as follows: Antiproliferative activity against human MCF7 cells by MTS assay.
The test system of experiment [2] is A549. Nature of the experiment: Antiproliferative activity against human […] cells by MTS assay. (In general: Tetrazolium assays rely on reduction of a dye to a coloured formazan, in cell work by metabolically active cells.)
In experiment [3] the test system is SW480. The experiment is described as follows: Antiproliferative activity against human SW480 cells by MTS assay.
Experiment [4] has as its system HL-60. The experiment is described as follows: Antiproliferative activity against human HL60 cells by MTS assay.
In experiment [5] the test system is SMMC-7721. Nature of the experiment: Antiproliferative activity against human SMMC7721 by MTS assay.

In general, IC50 refers to the concentration that gives 50% inhibition.

Regarding `COc1ccc(C(=O)C[n+]2ccn(CC=C(c3cc4ccccc4o3)c3cc4ccccc4o3)c2)cc1`, the IC50 in experiment [1], in experiment [2], in experiment [3], in experiment [4] and in experiment [5] was above 20 µM each time.

On to `Cc1cc2c(cc1C)[n+](CC(=O)c1ccccc1)cn2CC=C(c1cc2ccccc2o1)c1cc2ccccc2o1`, for which the IC50 stood at 3.42 µM in experiment [1]; 7.08 µM in experiment [2]; 4.3 µM in experiment [3]; 4.33 µM in experiment [4]; 6.38 µM in experiment [5].

For the compound `Cc1n(CC=C(c2cc3ccccc3o2)c2cc3ccccc3o2)c2ccccc2[n+]1CC(=O)c1ccccc1`, the IC50 came out at 0.8 µM in experiment [1]; 3.5 µM in experiment [2]; 0.79 µM in experiment [3]; 1.08 µM in experiment [4]; 1.34 µM in experiment [5].

`COc1ccc(C(=O)C[n+]2cn(CC=C(c3cc4ccccc4o3)c3cc4ccccc4o3)c3ccccc32)cc1`: the IC50 came to 1.02 µM in experiment [1]; 2.32 µM in experiment [2]; 1.47 µM in experiment [3]; 1.19 µM in experiment [4]; 1.53 µM in experiment [5].

As to `O=C(C[n+]1cn(CC=C(c2cc3ccccc3o2)c2cc3ccccc3o2)c2ccccc21)c1ccc(-c2ccccc2)cc1`, the IC50 in experiment [1] is 2.42 µM; in experiment [2], 7.23 µM; in experiment [3] it was 5.94 µM; in experiment [4] it was 5.33 µM; in experiment [5] it was 6.69 µM.

Turning to `O=C(C[n+]1ccn(CC=C(c2cc3ccccc3o2)c2cc3ccccc3o2)c1)c1ccc2ccccc2c1`, the half-inhibitory concentration (IC50) was 7.83 µM in experiment [1]; above 20 µM in experiment [2]; 6.97 µM in experiment [3]; 7.73 µM in experiment [4]; above 20 µM in experiment [5].

As to `Cc1n(CC=C(c2cc3ccccc3o2)c2cc3ccccc3o2)c2ccccc2[n+]1CC(=O)c1ccc2ccccc2c1`, the half-inhibitory concentration (IC50) in experiment [1] was 0.97 µM; in experiment [2], 1.58 µM; in experiment [3] it was 1.54 µM; in experiment [4], 1.58 µM; in experiment [5], 1.51 µM.

For the compound `Cc1n(CC=C(c2cc3ccccc3o2)c2cc3ccccc3o2)c2ccccc2[n+]1CC(=O)c1ccc(-c2ccccc2)cc1`, the IC50 in experiment [1] came out at 1.23 µM; in experiment [2], 1.96 µM; in experiment [3], 1.48 µM; in experiment [4], 1.41 µM; in experiment [5] it was 1.67 µM.

Consider `O=C(C[n+]1cn(CC=C(c2cc3ccccc3o2)c2cc3ccccc3o2)c2ccccc21)c1ccc2ccccc2c1`, for which the IC50 in experiment [1] amounted to 1.44 µM; in experiment [2], 1.54 µM; in experiment [3], 1.77 µM; in experiment [4], 1.63 µM; in experiment [5], 1.46 µM.

Take `C(Cn1ccnc1)=C(c1cc2ccccc2o1)c1cc2ccccc2o1`: the IC50 in experiment [1], in experiment [2], in experiment [3], in experiment [4] and in experiment [5] was above 20 µM in each case.

As for `Cc1cc2c(cc1C)[n+](CC(=O)c1ccc(-c3ccccc3)cc1)cn2CC=C(c1cc2ccccc2o1)c1cc2ccccc2o1`, the IC50 in experiment [1] is 8.67 µM; in experiment [2] it was 7.68 µM; in experiment [3], 6.42 µM; in experiment [4], 6.93 µM; in experiment [5], 9.04 µM.

As to `COc1ccc(C(=O)C[n+]2c(C)n(CC=C(c3cc4ccccc4o3)c3cc4ccccc4o3)c3ccccc32)cc1`, the half-maximal inhibitory concentration (IC50) was found to be 0.64 µM in experiment [1]; 1.47 µM in experiment [2]; 0.88 µM in experiment [3]; 1.11 µM in experiment [4]; 1.38 µM in experiment [5].

Consider `COc1ccc(C(=O)C[n+]2cn(CC=C(c3cc4ccccc4o3)c3cc4ccccc4o3)c3cc(C)c(C)cc32)cc1`, for which the IC50 in experiment [1] is 7.97 µM; in experiment [2], 8.25 µM; in experiment [3], 5.8 µM; in experiment [4], 8 µM; in experiment [5], 9.46 µM.

`O=C(C[n+]1ccn(CC=C(c2cc3ccccc3o2)c2cc3ccccc3o2)c1)c1ccccc1`: the 50% inhibitory concentration (IC50) was 11.2 µM in experiment [1]; above 20 µM in experiment [2]; 6.44 µM in experiment [3]; 6.95 µM in experiment [4]; above 20 µM in experiment [5].

For the compound `Cc1cc2ncn(CC=C(c3cc4ccccc4o3)c3cc4ccccc4o3)c2cc1C`, the IC50 in experiment [1], in experiment [2], in experiment [3], in experiment [4] and in experiment [5] was above 20 µM each time.

Take `Cc1cc2c(cc1C)[n+](CC(=O)c1ccc(Br)cc1)cn2CC=C(c1cc2ccccc2o1)c1cc2ccccc2o1`: the IC50 turned out to be 7.05 µM in experiment [1]; 7.42 µM in experiment [2]; 7.93 µM in experiment [3]; 6.27 µM in experiment [4]; 7.81 µM in experiment [5].

On to `O=C(C[n+]1cn(CC=C(c2cc3ccccc3o2)c2cc3ccccc3o2)c2ccccc21)c1ccccc1`, for which the IC50 was determined as 1.56 µM in experiment [1]; 6.02 µM in experiment [2]; 1.92 µM in experiment [3]; 1.44 µM in experiment [4]; 3.93 µM in experiment [5].

Regarding `O=C(C[n+]1ccn(CC=C(c2cc3ccccc3o2)c2cc3ccccc3o2)c1)c1ccc(Br)cc1`, the IC50 in experiment [1] was 7.29 µM; in experiment [2], 8.47 µM; in experiment [3], 6.17 µM; in experiment [4] it was 8.4 µM; in experiment [5], 7.86 µM.

For `Cc1nc2ccccc2n1CC=C(c1cc2ccccc2o1)c1cc2ccccc2o1`, the IC50 in experiment [1], in experiment [2], in experiment [3], in experiment [4] and in experiment [5] was above 20 µM in each case.

On to `Cc1n(CC=C(c2cc3ccccc3o2)c2cc3ccccc3o2)c2ccccc2[n+]1CC(=O)c1ccc(Br)cc1`, for which the IC50 stood at 1.72 µM in experiment [1]; 7.43 µM in experiment [2]; 0.8 µM in experiment [3]; 2.43 µM in experiment [4]; 6.84 µM in experiment [5].

With `O=C(C[n+]1cn(CC=C(c2cc3ccccc3o2)c2cc3ccccc3o2)c2ccccc21)c1ccc(Br)cc1`, the IC50 in experiment [1] came to 1.63 µM; in experiment [2], 6.46 µM; in experiment [3] it was 1.43 µM; in experiment [4] it was 1.73 µM; in experiment [5] it was 6.05 µM.

Take `C(Cn1cnc2ccccc21)=C(c1cc2ccccc2o1)c1cc2ccccc2o1`: the IC50 in experiment [1], in experiment [2], in experiment [3], in experiment [4] and in experiment [5] was above 20 µM throughout.

For the compound `O=C(C[n+]1ccn(CC=C(c2cc3ccccc3o2)c2cc3ccccc3o2)c1)c1ccc(-c2ccccc2)cc1`, the IC50 came out at 7.57 µM in experiment [1]; 9.05 µM in experiment [2]; 7.2 µM in experiment [3]; 7.25 µM in experiment [4]; 8.04 µM in experiment [5].

As to `Cc1cc2c(cc1C)[n+](CC(=O)c1ccc3ccccc3c1)cn2CC=C(c1cc2ccccc2o1)c1cc2ccccc2o1`, the IC50 in experiment [1] is 2.38 µM; in experiment [2] it was 5.34 µM; in experiment [3], 2.36 µM; in experiment [4] it was 3.14 µM; in experiment [5], 5.9 µM.
